# Reference: patent US4500525A, “Pharmacologically active pyrazolo/4,3-c/pyridines” (Gruppo Lepetit S.p.A., priority 1982, dated 1985)
# Counter-ions that a name gives are not always drawn.
# Assays:
# [1] = tested on: mice; assay: pole climbing avoidance test; type: in vivo; details: i.p., treated/untreated mice
# Description: The neuroleptic activity of the compounds of the invention was investigated by means of the "pole climbing avoidance test", as described by L. Cook et al. (Ann. N.Y. Acad. Sci. 66, 740, 1957) and subsequently modified by Maffii et al. (J. Pharm. Pharmac., 11, 129, 1959). As a representative example, the compound of example 38 scores as follows in the above test:
# The symbols CR, CR2, and UR corresponds to the primary, secondary conditioned response and to the unconditioned response according to the above test.
# [2] = tested on: spontaneously hypertensive rat; assay: lowering of arterial pressure in the spontaneously hypertensive rat; type: in vivo; details: p.o. 50 mg/kg
# Protocol: Journal, Vol. 27, p. 282, (1963). The arterial pressure was evaluated according to H. Fribel, E. Vredom, described in Arch. Exp. Phat. Pharmak. Vol. 232, p. 416, (1958). […] This 15% threshold is generally considered predictive of significant antihypertensive activity.
# [3] = biological target: α1 adrenoceptor; assay: displacement of ^3 H-prazosin specifically bound in rat brain homogenate (radioligand binding); details: ^3 H Prazosin binding, Ki calculated from IC50, read-out: K1 (nM) ^3 H Prazosin
# Protocol: The compounds of the invention were tested […] for their ability to compete with labelled ligands of α1, α2 -adrenergic,and dopaminergic receptors. Said tests were made essentially following:
# (b) the method described by P. Greengrass et al., European Journal of Pharmacology, Vol. 55, pp. 323-326, (1979), which uses the specific displacement of ^3 H-prazosin specifically bound in rat brain homogenate, for the identification of substances interacting with the so called "α1 "adrenoceptor;
# The above mentioned methods are radioligand binding assays and are based on the knowledge that many natural or synthetic physiologically active substances such as neurotransmitters, hormones, and others, specifically link to cellular receptors, generally of proteic nature. They are generally obtained from a tissue or organ of a suitable test-animal after isolation and homogenization of said tissue or organ.
# The homogenate is twice centrifugated to separate and partially purify the receptorial fraction (synaptosomes).
# The labelled substances employed are known to specifically bind their receptors, so the drug-receptor dissociation constants obtained for each test compound under standard conditions are a measure of their actual binding affinities. The validation of the above methods in predicting a possible pharmacological activity was carried out comparing the in vitro binding constants of a number of […] agonist or antagonist of the adrenergic or dopaminergic system with their in vivo activities. The α1 -adrenergic activity is essentially correlated with a peripheral vasodilatation. The α2 -adrenergic activity is essentially correlated with a hypotensive action of central origin, and the dopaminergic activity is correlated with a neuroleptic action. IC50 values, defined as the drug concentration that cause 50% inhibition of the specific ^3 H ligant binding, are observed by incubating from 5 to 7 different dilutions of the tested compound in duplicate or triplicate. Ki, inhibition constant, values are calculated from the following formula: [formula] wherein IC50 is defined as above, C is the concentration of the ^3 H ligand, and KD is the dissociation constant of the ^3 H ligand-receptor complex.
# [4] = tested on: renal hypertensive dogs; assay: lowering of blood pressure in renal hypertensive dogs; type: in vivo, dog
# Protocol: In renal hypertensive dogs, preparated essentially according to H. Golblatt, J. Linch. and R. F. Manzal, J. Exp. Med. 59, 347 (1934), some of the compounds of the invention show a considerable lowering of the systolic blood pressure without affecting the heart rate to a great extent.
# The test compounds are administered orally and the pressure is measured according to the method of H. Friebel, E. Vrenden, Arch. Exp. Phat. Pharmak. 232, 419 ([…]).
# In the above test system the compound of example 100 determines a 20% drop of the blood pressure when administered 0.5 mg/kg p.o., the compound of example 106 determines a 22% drop when administered 1 mg/kg p.o., the compounds of Examples 134 and 135 determine a drop of 34% and 25%, respectively, when administered 5 mg/kg p.o., and the compound of example 107 determines a 43% drop of the blood pressure when administered 10 mg/kg p.o.
# [5] = positive inotropic activity in conventional in vitro tests (isolated preparation)
compound,measurement,setting,value
"CN1CCc2[nH]nc(-c3ccc(F)cc3)c2C1 [Example 38, 3-(4-fluorophenyl)-5-methyl-4,5,6,7-tetrahydro-1H-pyrazolo/4,3-c/pyridine]",CR2 (secondary conditioned response),[1]; 10 mg/kg,9/10
same,CR (primary conditioned response),[1]; 10 mg/kg,3/10
same,UR (unconditioned response),[1]; 10 mg/kg,0/10
same,CR2 (secondary conditioned response),[1]; 25 mg/kg,10/10
same,CR (primary conditioned response),[1]; 25 mg/kg,8/10
same,UR (unconditioned response),[1]; 25 mg/kg,0/10
"Fc1ccc(-c2nn(Cc3ccccc3)c3c2CNCC3)cc1 [Example 100, 3-(4-fluorophenyl)-1-phenylmethyl-4,5,6,7-tetrahydro-1H-pyrazolo/4,3-c/pyridine, hydrochloride]",lowering of the pressure,[2],30%
same,Ki,[3],14.7 nM
same,drop of the blood pressure,[4]; 0.5 mg/kg p.o.,20%
"CCn1nc(-c2cccs2)c2c1CCNC2 [Example 102, 1-ethyl-3-(2-thienyl)-4,5,6,7-tetrahydro-1H-pyrazolo/4,3-c/pyridine, methanesulfonate]",positive inotropic activity,[5],good positive inotropic activity
same,antagonism of the inotropic activity by propanolol (β-adrenergic effects),[5]; propanolol,not antagonized by propanolol
Fc1ccc(Cn2nc(-c3ccc(F)cc3)c3c2CCNC3)cc1 [Example 106],Ki,[3],0.331 nM
same,drop of the blood pressure,[4]; 1 mg/kg p.o.,22%
"Cc1ccc(Cn2nc(-c3ccc(F)cc3)c3c2CCNC3)cc1 [Example 107, 3-(4-fluorophenyl)-1-(4-methylphenylmethyl)-4,5,6,7-tetrahydro-1H-pyrazolo/4,3-c/pyridine, methanesulfonate]",Ki,[3],23.6 nM
same,drop of the blood pressure,[4]; 10 mg/kg p.o.,43%
"CN1CCc2c(c(-c3ccc(F)cc3)nn2Cc2ccc(F)cc2)C1 [Example 134, 3-(4-fluorophenyl)-1-(4-fluorophenylmethyl)-5-methyl-4,5,6,7-tetrahydro-1H-pyrazolo/4,3-c/pyridine, hydrochloride]",Ki,[3],6.35 nM
same,drop of the blood pressure,[4]; 5 mg/kg p.o.,34%
"Cc1ccc(Cn2nc(-c3ccc(F)cc3)c3c2CCN(C)C3)cc1 [Example 135, 3-(4-fluorophenyl)-1-(4-methylphenylmethyl)-5-methyl-4,5,6,7-tetrahydro-1H-pyrazolo/4,3-c/pyridine, methanesulfonate]",Ki,[3],47.2 nM
same,drop of the blood pressure,[4]; 5 mg/kg p.o.,25%
"Fc1ccc(-c2nn(Cc3ccccc3)c3c2CN(C2CCCC2)CC3)cc1 [Example 163, 5-cyclopentyl-3-(4-fluorophenyl)-1-phenylmethyl-4,5,6,7-tetrahydro-1H-pyrazolo/4,3-c/pyridine, hydrochloride]",Ki,[3],42.4 nM
